Laboratory results as given in ChEMBL document CHEMBL1629448, “Identification and synthesis of novel inhibitors of acetyl-CoA carboxylase with in vitro and in vivo efficacy on fat oxidation” (J Med Chem, 2010).
The source made the active and inactive calls. No cut-off for these calls is given here.

Tests used:
Acetyl-CoA carboxylase 2 = Acetyl-CoA carboxylase 2 (Homo sapiens, UniProt O00763); assay: Inhibition of N-terminal His-tagged human recombinant ACC2 expressed in high five insect cells by ATP consumption assay
Acetyl-CoA carboxylase 2, sequence (O00763 whole entry): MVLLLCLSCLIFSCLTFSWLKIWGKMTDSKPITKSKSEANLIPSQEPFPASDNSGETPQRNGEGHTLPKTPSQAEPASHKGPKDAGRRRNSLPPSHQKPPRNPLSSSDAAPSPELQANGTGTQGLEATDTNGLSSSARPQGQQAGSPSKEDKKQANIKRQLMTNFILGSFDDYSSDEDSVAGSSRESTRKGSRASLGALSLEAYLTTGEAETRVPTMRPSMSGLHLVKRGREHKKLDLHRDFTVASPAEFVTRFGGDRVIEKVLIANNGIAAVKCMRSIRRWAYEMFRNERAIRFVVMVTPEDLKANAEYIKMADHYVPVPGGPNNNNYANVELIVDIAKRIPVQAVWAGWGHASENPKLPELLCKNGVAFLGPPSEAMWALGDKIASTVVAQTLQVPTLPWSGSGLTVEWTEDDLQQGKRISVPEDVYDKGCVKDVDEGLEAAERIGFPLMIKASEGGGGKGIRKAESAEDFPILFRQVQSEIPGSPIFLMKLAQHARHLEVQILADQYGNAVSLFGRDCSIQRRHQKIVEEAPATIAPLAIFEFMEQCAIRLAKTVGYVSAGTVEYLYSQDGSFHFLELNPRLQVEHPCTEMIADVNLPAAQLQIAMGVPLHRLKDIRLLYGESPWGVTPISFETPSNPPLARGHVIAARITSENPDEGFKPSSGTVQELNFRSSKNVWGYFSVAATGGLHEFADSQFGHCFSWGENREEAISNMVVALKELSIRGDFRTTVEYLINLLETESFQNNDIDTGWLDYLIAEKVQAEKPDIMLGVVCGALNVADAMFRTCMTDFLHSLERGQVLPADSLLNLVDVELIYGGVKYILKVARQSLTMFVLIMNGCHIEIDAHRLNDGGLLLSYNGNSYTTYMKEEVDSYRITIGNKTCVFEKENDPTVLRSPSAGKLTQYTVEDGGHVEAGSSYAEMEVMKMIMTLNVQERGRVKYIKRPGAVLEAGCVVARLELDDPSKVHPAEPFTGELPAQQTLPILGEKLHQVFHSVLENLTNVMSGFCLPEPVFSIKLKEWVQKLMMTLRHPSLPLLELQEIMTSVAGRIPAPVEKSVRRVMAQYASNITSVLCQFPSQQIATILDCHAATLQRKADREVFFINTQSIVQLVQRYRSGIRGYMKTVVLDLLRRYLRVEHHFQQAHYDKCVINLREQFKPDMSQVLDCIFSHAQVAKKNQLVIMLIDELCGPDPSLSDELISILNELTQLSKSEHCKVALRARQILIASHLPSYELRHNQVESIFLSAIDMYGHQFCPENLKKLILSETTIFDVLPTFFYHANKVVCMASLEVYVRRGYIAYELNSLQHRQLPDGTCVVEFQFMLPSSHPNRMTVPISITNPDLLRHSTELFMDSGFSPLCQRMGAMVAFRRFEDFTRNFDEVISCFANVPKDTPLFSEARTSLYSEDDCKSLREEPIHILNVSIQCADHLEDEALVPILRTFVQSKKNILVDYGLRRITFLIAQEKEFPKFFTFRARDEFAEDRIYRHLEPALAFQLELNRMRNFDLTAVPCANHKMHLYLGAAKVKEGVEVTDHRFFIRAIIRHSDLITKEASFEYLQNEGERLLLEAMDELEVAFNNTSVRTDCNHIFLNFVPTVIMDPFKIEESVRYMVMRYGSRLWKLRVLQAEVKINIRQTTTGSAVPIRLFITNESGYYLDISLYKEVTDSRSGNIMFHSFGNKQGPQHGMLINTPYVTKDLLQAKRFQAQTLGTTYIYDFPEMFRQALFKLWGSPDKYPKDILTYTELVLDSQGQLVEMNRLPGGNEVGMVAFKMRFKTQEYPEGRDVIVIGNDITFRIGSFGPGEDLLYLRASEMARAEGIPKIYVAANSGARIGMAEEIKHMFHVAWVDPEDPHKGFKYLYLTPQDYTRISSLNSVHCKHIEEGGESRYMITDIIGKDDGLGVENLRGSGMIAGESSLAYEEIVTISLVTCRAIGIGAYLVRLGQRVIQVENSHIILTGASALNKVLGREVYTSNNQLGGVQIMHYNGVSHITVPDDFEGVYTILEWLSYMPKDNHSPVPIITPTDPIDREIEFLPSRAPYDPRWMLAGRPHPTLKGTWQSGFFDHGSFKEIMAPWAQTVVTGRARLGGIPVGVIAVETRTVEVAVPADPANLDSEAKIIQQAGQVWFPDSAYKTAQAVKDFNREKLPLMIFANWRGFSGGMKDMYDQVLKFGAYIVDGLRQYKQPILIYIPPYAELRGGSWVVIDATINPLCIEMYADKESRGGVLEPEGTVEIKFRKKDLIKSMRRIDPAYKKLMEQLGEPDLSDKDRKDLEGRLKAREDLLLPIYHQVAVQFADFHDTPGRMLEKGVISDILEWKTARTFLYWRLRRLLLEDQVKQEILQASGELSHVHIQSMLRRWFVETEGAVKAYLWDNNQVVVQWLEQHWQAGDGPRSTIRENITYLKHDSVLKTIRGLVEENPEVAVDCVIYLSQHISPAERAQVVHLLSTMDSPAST

Acetyl-CoA carboxylase 1 [1] = biological target: Acetyl-CoA carboxylase 1 (Homo sapiens, UniProt Q13085); assay: Inhibition of N-terminal His-tagged human recombinant ACC1 expressed in high five insect cells by ATP consumption assay
[2] = (§1) Inhibition of N-terminal His-tagged rat recombinant ACC2 expressed in high five insect cells by ATP consumption assay
Acetyl-CoA carboxylase 1 [3] = biological target: Acetyl-CoA carboxylase 1 (Rattus norvegicus, UniProt P11497); assay: (§2) Inhibition of N-terminal His-tagged rat recombinant ACC1 expressed in high five insect cells by ATP consumption assay
Rattus norvegicus = species on record: Rattus norvegicus; assay: as §1
[4] = biological target: Acetyl-CoA carboxylase 1 (Rattus norvegicus) (UniProt P11497); assay: as §2

Row | IC50 (Acetyl-CoA carboxylase 2) [nM] | IC50 (Acetyl-CoA carboxylase 1 [1]) [nM] | IC50 (Acetyl-CoA carboxylase 1 [3]) [nM] | inhibition (Acetyl-CoA carboxylase 1 [1]) | inhibition [4] | SMILES | IC50 [2] [nM] | inhibition (Rattus norvegicus)
1 | > 30000 | – | – | – | – | CC(=O)N[C@H](C)CCc1ccc(Oc2ccc(OCc3ccccc3)cn2)cc1 | – | –
2 | 70 | 14600 | 14000 | – | – | CC(=O)NCCC[C@H]1OC[C@H](Oc2ccc(OCc3ccccc3)cn2)CO1 | > 30000 | –
3 | 2650 | > 30000 | > 30000 | – | – | CC(=O)NCCCC1OCC(Cc2cccc(OCCC3CC3)c2)CO1 (centres undefined) | > 30000 | –
4 | 60 | > 10000 | > 10000 | – | – | CC(=O)N[C@@H](C)C#Cc1cnc(Oc2ccc(OC(C)C)cc2)s1 | 380 | –
5 | 190 | 3900 | 13000 | – | – | CC(=O)NCCC[C@H]1OC[C@H](Oc2ccc(OC3CCCC3)cc2)CO1 | 12000 | –
6 | – | 1100 | 2900 | – | – | CC(=O)NC(C)CCc1ccc(Oc2ccc(OC3CCCC3)cn2)cc1 (centres undefined) | 7900 | –
7 | 210 | 750 | 2100 | – | – | CC(=O)NC(C)CCc1ccc(Oc2ccc(OCc3ccccc3)cn2)cc1 (centres undefined) | > 30000 | –
8 | 15 | 140 | 1140 | – | – | CC(=O)N[C@@H](C)CC[C@H]1CC[C@H](Oc2ccc(OC(C)C)nc2)CC1 | 200 | –
9 | – | 5700 | 11000 | – | – | CC(CCc1ccc(Oc2ccc(OC(C)C)nc2)cc1)NC=O (centres undefined) | 17000 | –
10 | 2100 | > 30000 | > 30000 | – | – | CC(=O)NCCCC1OCC(Cc2cccc(OCCc3ccccc3)c2)CO1 (centres undefined) | > 30000 | –
11 | 700 | 21000 | > 30000 | – | – | CC(=O)NCCCC1OCC(Cc2cccc(OCC3CCC3)c2)CO1 (centres undefined) | > 30000 | –
12 | > 30000 | – | – | – | – | CC(=O)NCCC[C@H]1OC[C@@H](Oc2ccc(OCc3ccccc3)cc2)CO1 | – | –
13 | 250 | 1200 | 2900 | – | – | COC(=O)NC(C)CCc1ccc(Oc2ccc(OC(C)C)nc2)cc1 (centres undefined) | 3900 | –
14 | – | 1800 | 2600 | – | – | CC(=O)N[C@@H](C)CCc1ccc(Oc2ccc(OC(C)C)cn2)cc1 | 6750 | –

Continued, compound first:

Row | SMILES | IC50 (Acetyl-CoA carboxylase 2) [nM] | IC50 (Acetyl-CoA carboxylase 1 [1]) [nM] | IC50 (Acetyl-CoA carboxylase 1 [3]) [nM] | inhibition (Acetyl-CoA carboxylase 1 [1]) | inhibition [4] | IC50 [2] [nM] | inhibition (Rattus norvegicus)
15 | CC(=O)NC(C)CCc1ccc(Oc2cnc(OC(C)C)nc2)cc1 (centres undefined) | 700 | 3000 | 7400 | – | – | 20000 | –
16 | CC(=O)NC(C)CCc1ccc(OC2=NCC(OC(C)C)N=C2)cc1 (centres undefined) | 1200 | > 30000 | > 30000 | – | – | > 30000 | –
17 | CC(=O)NC(C)CCc1ccc(Oc2ccc(OC(C)C)cn2)cc1 (centres undefined) | – | 1780 | 2600 | – | – | 4520 | –
18 | CC(=O)N[C@H](C)CCc1ccc(Oc2ccc(OC(C)C)nc2)cc1 | 7800 | 9900 | > 30000 | – | – | > 30000 | –
19 | O=C(c1c2ccccc2cc2ccccc12)N1CCC(N2CCC[C@@H](C(=O)N3CCOCC3)C2)CC1 | 70 | 910 | – | – | – | 280 | –
20 | CC(=O)NC(C)CCc1ccc(Oc2ccc(OCc3ccccc3)nc2)cc1 (centres undefined) | 80 | 1100 | 700 | – | – | 7900 | –
21 | CC(=O)NCCC[C@H]1OC[C@H](Oc2ccc(OCc3ccccc3)cc2)CO1 | – | > 30000 | > 30000 | – | – | > 30000 | –
22 | CC(=O)NCCCc1ccc(Oc2ccc(OC3CCCC3)cn2)cc1 | 1280 | > 30000 | > 30000 | – | – | > 30000 | –
23 | CC(=O)N[C@@H](C)CO[C@H]1CC[C@H](Oc2ccc(OC(C)C)nc2)CC1 | 60 | 2300 | 10500 | – | – | 600 | –
24 | CC(=O)N[C@@H](C)CCc1ccc(Oc2ccc(OCc3ccccc3)cn2)cc1 | – | 920 | 1200 | – | – | > 30000 | –
25 | CC(=O)NC(C)CCc1ccc(Oc2ccc(OC(C)C)nn2)cc1 (centres undefined) | 6700 | 12700 | > 30000 | – | – | > 30000 | –
26 | CC(CCc1ccc(Oc2ccc(OC(C)C)nc2)cc1)NC(N)=O (centres undefined) | – | 1200 | 2900 | – | – | 3000 | –
27 | CC(CCc1ccc(Oc2ccc(OC(C)C)nc2)cc1)NC(=O)C1CC1 (centres undefined) | 190 | 620 | 3200 | – | – | 1900 | –
28 | CC(C)Oc1ccc(Oc2ccc(CC[C@H](C)NC(=O)C3CC3)cc2)cn1 | 80 | 360 | 800 | – | – | 700 | –
29 | CC(=O)NCCCC1OCC(c2cccc3cc(OC4CCCC4)ccc23)CO1 (centres undefined) | 630 | > 30000 | > 30000 | inactive | inactive | > 30000 | inactive
30 | CC(=O)NCCCC1OCC(Cc2cccc(OCCC3CCCC3)c2)CO1 (centres undefined) | 270 | 2700 | 25000 | – | – | 17000 | –
